Source: publication PMC3574224, “Na^+ Regulation in the Malaria Parasite Plasmodiumfalciparum Involves the Cation ATPase PfATP4 and Is a Target of the Spiroindolone Antimalarials” (Cell Host & Microbe, 2013)

Experiments:
[1] = test system: P. falciparum trophozoites; assay: Cytosolic [Ca^2+]i in fura-2-loaded saponin-isolated parasites; assay type: cell-based, Plasmodium falciparum; details: 2 μM; medium containing 1 μM Ca^2+
Method: [Ca^2+]i was measured with the Ca^2+-sensitive indicator fura-2 (Molecular Probes, Invitrogen) using a loading protocol identical to that described for SBFI. Calibration was performed as described previously ([Alleva and Kirk, 2001]).

[2] = test system: P. falciparum 3D7 trophozoites; assay: microbe, parasite or virus in culture; assay type: cell-based, Plasmodium falciparum; details: for Rate of increase of [Na^+]i at maximally effective concentrations: maximally effective concentration; for IC50: Plasmodium falciparum, concentration causing [Na^+]i to increase from resting value at half the maximal rate, from fitted curves, read-out: IC50 for disruption of Na^+ regulation
Method: P. falciparum strains 3D7, Dd2, NITD609-R^Dd2 clone #2, Dd2^attB, and Dd2^attB CAM I398F/P990R were cultured under shaking conditions as described elsewhere ([Allen and Kirk, 2010]). Cultures were synchronized 24 hr before experimentation using 5% w/v sorbitol ([Lambros and Vanderberg, 1979]). All experiments were conducted on mature trophozoite-stage parasites (36–40 hr postinvasion) functionally isolated from their host erythrocytes by permeabilization of the erythrocyte and parasitophorous vacuole membranes by brief exposure to saponin (0.05% w/v) as described previously ([Spillman et al., 2008]).
(§1) The [Na^+]i of saponin-isolated parasites was measured at 37°C using the Na^+-sensitive dye SBFI (Molecular Probes, Invitrogen) in conjunction with a PerkinElmer LS 50B Fluorescence Spectrometer fitted with a Dual Excitation Fast Filter. Saponin-isolated parasites were loaded with SBFI by suspension (at 1.40–1.80 × 10^8 cells/mL) for 20 min at 37°C in bicarbonate-free RPMI1640 supplemented with 20 mM D-glucose, 0.2 mM hypoxanthine, 25 mM HEPES, and 25 mg/L gentamycin sulfate (pH 7.10), to which SBFI-acetoxymethyl ester (5.5 μM) and Pluronic F-127 (0.01% w/v) were added. The dye-loaded cells were washed twice (12,000 × g, 0.5 min) in bicarbonate-free RPMI then incubated for a further 20 min at 37°C to allow for complete de-esterification of the dye before being resuspended at a final cell concentration of 1.5–2.5 × 10^7 cells/mL in standard saline. The dye-loaded cells were excited at 340 nm and 380 nm with fluorescence recorded at 490 nm. Calibration of the relationship between the 340/380 nm fluorescence ratio and [Na^+]i (see Figures S1A–S1C) was carried out as described previously ([Diarra et al., 2001]; [Harootunian et al., 1989]).
The initial Na^+ influx rate (at t = 0) is a × Δ[Na^+]i^max.
(§2) Dose-response curves were obtained using the expression y = y^min + y^max/(1 + [C/IC50]^b), where y is the parameter being measured (parasite proliferation, Na^+ influx, or ATPase activity), y^min is the minimum value of y, y^max is the maximum value of y, C is the concentration of the moiety that was varied in the experiment, IC50 is the concentration at which y was reduced to 50% of y^max, and b is a fitted constant.

[3] = test system: P. falciparum trophozoites; assay: Recovery of [Na^+]i from an imposed intracellular Na^+ load (K^+ removal and restoration); assay type: cell-based, Plasmodium falciparum; details: added with 10 mM KCl
Method: The mechanism responsible for the increase in [Na^+]i seen upon removal of extracellular K^+ was not investigated further here. However, the phenomenon does provide a useful means of imposing an intracellular Na^+ load on the parasite and of testing the effect of inhibitors on the net efflux of Na^+ from the Na^+-loaded parasite.
as §1, with “1989]). Several inhibitors used in this study caused inner filter effects ([Gu and Kenny, 2009]; [Srinivas and Mutharasan, 1987]); in these cases calibration curves were generated with the inhibitors present.” for “1989]).”
The rate of efflux of Na^+ from the cells, following an imposed intracellular Na^+ load, was estimated by fitting the following function to the [Na^+]i traces: [Na^+]i = Δ[Na^+]i^max × e^-at + [Na^+]i^final, where Δ[Na^+]i^max is the increase in [Na^+]i above the normal resting value (following the imposition of an intracellular Na^+-load), t is the time after the commencement of efflux (on addition of extracellular K^+), a is a fitted constant, and [Na^+]i^final is the final value of [Na^+]i. The initial Na^+ efflux rate (at t = 0) is a × Δ[Na^+]i^max, and the half-time to complete recovery (t1/2) is ln(0.5)/-a.

[4] = test system: P. falciparum parasites; assay: Parasite proliferation, [^3H]hypoxanthine incorporation assay, 48 hr; assay type: cell-based; details: Plasmodium falciparum; mean ± SEM, number of independent experiments in parentheses; read-out: IC50 for inhibition of parasite proliferation
Method: Parasite growth assays were performed in 96-well plates over 48 hr (commencing at the ring stage) using a standard [^3H]hypoxanthine incorporation assay ([Desjardins et al., 1979]).
as §2

[5] = test system: P. falciparum trophozoites; assay: Cytosolic pH (pHi) in BCECF-loaded saponin-isolated parasites; assay type: cell-based, Plasmodium falciparum
Method: pHi of saponin-isolated parasites was measured using the pH-sensitive indicator BCECF (Molecular Probes, Invitrogen) as described previously ([Saliba and Kirk, 1999]). […] Critical experiments performed using SBFI-loaded parasites were repeated with parasites loaded with BCECF.

[6] = 10 μM, on the timescale of the experiments

For `CC(=O)C1=C(O)[C@@H]2[C@H]3c4c[nH]c5cccc(c45)C[C@H]3C(C)(C)N2C1=O` [CPA, cyclopiazonic acid, reference compound], the “Effect on [Ca^2+]i” value [1] was “transient increase in [Ca^2+]i” and the “Effect on [Na^+]i” value ([2]; 40 μM) was “caused [Na^+]i to increase”.
`CCN(c1nc(N)c(C(=O)NC(=N)N)nc1Cl)C(C)C` [EIPA, ethylisopropylamiloride, reference compound] was tested, and the “Effect on recovery of [Na^+]i after Na^+ load” value ([3]; 20 μM) was “unaffected” and the “Effect on resting [Na^+]i” value ([2]; 20 μM) was “Neither the Na^+/H^+ exchanger inhibitor ethylisopropylamiloride (EIPA; 20 μM) nor the Na^+/K^+-ATPase inhibitor ouabain (2 mM) had a significant effect”.
With `NS(=O)(=O)c1cc(C(=O)O)c(NCc2ccco2)cc1Cl` [Furosemide, reference compound] the “Effect on recovery of [Na^+]i after Na^+ load” value ([3]; 100 μM) was “slowed”.
In the case of `C[C@@H]1CCc2c([nH]c3ccccc23)[C@]2(N1)C(=O)Nc1ccc(Br)cc12` [NITD138], the “Effect on resting [Na^+]i” value ([2]; 50 nM, 3D7, standard saline) is reported as “little effect”, the “Rate of increase of [Na^+]i at maximally effective concentrations” value [2] is reported as “did not reach the maximum value at the highest concentration tested” and the IC50 [4] is reported as 2300 ± 200 nM.
`C[C@H]1CCc2c([nH]c3ccccc23)[C@@]2(N1)C(=O)Nc1ccc(Br)cc12` [NITD139] was tested, and the “Effect on resting [Na^+]i” value ([2]; 50 nM, 3D7, standard saline) was “immediate rapid increase in [Na^+]i”, the IC50 ([2]; 3D7, standard saline) was 16.6 ± 5.7 nM and the “Rate of increase of [Na^+]i at maximally effective concentrations” value [2] was 0.098 ± 0.007 mM/s. The IC50 [4] was 4 ± 0.9 nM.
For `C[C@@H]1Cc2c([nH]c3cc(F)c(F)cc23)[C@]2(N1)C(=O)Nc1ccc(Cl)cc12` [NITD247], the “Effect on resting [Na^+]i” value ([2]; 50 nM, 3D7, standard saline) was “little effect”, the IC50 ([2]; 3D7, standard saline) was 407 ± 117 nM and the “Rate of increase of [Na^+]i at maximally effective concentrations” value [2] was 0.125 ± 0.013 mM/s. It also gave an IC50 [4] of 41.6 ± 5.8 nM.
For `[Na+].[Na+].[Na+].[O]=[V]([O-])([O-])[O-]` [Sodium orthovanadate, reference compound], the “Effect on [Na^+]i” value ([2]; 100 μM) was “prolonged time-dependent increase”, the “Rate of increase of [Na^+]i” value ([2]; 500 μM, n = 4) was 0.13 ± 0.03 mM/s and the “Cytosolic pH (pHi) after addition” value ([5]; 100 μM, Na^+-dependent, increase from 7.28 ± 0.03, n = 6, p = 0.024) was 7.36 ± 0.03.
In the case of `C[C@@H]1CC[C@H]2[C@@H](C)C(=O)O[C@@H]3O[C@@]4(C)CC[C@@H]1[C@]32OO4` [artemisinin, reference compound], the “Effect on [Na^+]i” value [2, 6] is reported as “no effect”.
With `CCN(CC)CCCC(C)Nc1ccnc2cc(Cl)ccc12` (stereo not shown) [chloroquine, reference compound] the “Effect on [Na^+]i” value [2, 6] was “no effect”.
With `C/C=C/[C@H]1O[C@@](O)([C@@H](C)[C@H](O)[C@H](C)[C@H]2OC(=O)/C(OC)=C/C(C)=C/[C@@H](C)[C@@H](O)[C@@H](CC)[C@@H](O)[C@H](C)C/C(C)=C/C=C/[C@@H]2OC)C[C@@H](O[C@H]2C[C@@H](O)[C@H](OC(N)=O)[C@@H](C)O2)[C@@H]1C` [concanamycin A, reference compound] the “Effect on pHi of parasites after NITD246- or orthovanadate-induced alkalinisation” value ([5]; 75 nM, pHi decreasing to below its normal resting value) was “immediate reversal of the alkalinisation”.
With `C[C@@H]1O[C@@H](O[C@H]2C[C@@H](O)[C@]3(CO)[C@H]4[C@H](O)C[C@]5(C)[C@@H](C6=CC(=O)OC6)CC[C@]5(O)[C@@H]4CC[C@]3(O)C2)[C@H](O)[C@H](O)[C@H]1O` [ouabain, reference compound] the “Effect on resting [Na^+]i” value ([2]; 2 mM) was “nor the Na^+/K^+-ATPase inhibitor ouabain (2 mM) had a significant effect”.
For `C/C=C(/C)C(=O)O[C@H]1C(C)=C2[C@H]([C@@H]1OC(=O)CCCCCCC)[C@@](C)(OC(C)=O)C[C@H](OC(=O)CCC)[C@@]1(O)[C@H]2OC(=O)[C@@]1(C)O` [thapsigargin, reference compound], the “Effect on [Na^+]i” value ([2]; 2 μM) was “little effect”.
For Gramicidin [reference compound], the “Effect on [Na^+]i” value ([2]; 5 μM, [Na^+]o 125 mM) was “rapid increase in [Na^+]i”.
